Reference: patent US20160346398A1, “CROSS-LINKED HYALURONIC ACID FOR DRUG DELIVERY AND PHARMACEUTICAL PREPARATION USING SAME” (ALURON BIOPHARMA INC., priority 2015, published 2016)
Read-outs that look alike come from different tables or passages of the source.

Legend:
[1] = rat, in vivo
in vivo [2] = settings: male, rat, po, 50 mg/kg, plasma Raloxifene
[3] = cited from earlier work
in vivo [4] = settings: rat
Method: Quantification was performed using the selective MRM mode on a short LC column using a fast gradient.
Blood samples were collected at time 0, 30 min and 1, 3, 6, 24, 30 and 48 hrs. All plasma samples were collected after centrifugation and frozen at −80° C. Plasma was transferred on dry ice to the Platform of Biopharmacy and was kept at −80° C. until extraction and LC/MS/MS analysis (Table 1).
The plasma tubes were thawed on ice. Plasma samples were vortex mixed and 20 μL were pipetted into Eppendorf tubes. Proteins were precipitated by the addition of 40 μL acetonitrile. The tubes were vortex mixed and centrifuged for 4.5 min at 13,000 rpm. 20 μL of supernatant was transferred into a HPLC 96-well plate, and mixed with two volumes of water containing 5 mM ammonium acetate. The calibration curve was prepared in blank SD rat plasma, by serial dilution from 10 μM to […] Standard plasma samples were treated as described above.
Chromatography was performed on a Phenomenex Luna C8(2) 30×2 mm (5 μm) using gradient elution at 0.7 mL/min. The injection volume was 4 μL. The total acquisition time was 4.5 min. Samples were analyzed in selective MRM mode using LC-MS/MS. Peak area ratios for calibration curves and quantification of samples were calculated using Analyst software version 1.6.2. Calibration curves were plotted using the peak area ratios analyte/internal standard versus nominal analyte concentration, using a quadratic weighted 1/x regression.

SMILES	drug toxicity after combination with HA [1]	bioavailability after combination with HA ([1]; po)	Cmax (in vivo [2]; SD (Sprague-Dawley), Cmax)	Tmax (in vivo [2]; SD (Sprague-Dawley))	Tmax (in vivo [2]; SD)	water solubility (in words) [3]	Cmax (in vivo [4]; male, SD (Sprague-Dawley), po, 5 mg/kg, Cmax, plasma Letrozole)	Tmax (in vivo [4]; male, SD (Sprague-Dawley), po, 5 mg/kg, plasma Letrozole)	Tmax (in vivo [4]; male, SD, po, 5 mg/kg, plasma Letrozole)	drug toxicity after combination with HA (in vivo [4])	bioavailability after combination with HA (in vivo [4]; po)
O=C(c1ccc(OCCN2CCCCC2)cc1)c1c(-c2ccc(O)cc2)sc2cc(O)ccc12 [Raloxifene]	no detectable augmentation of the drug toxicity	increased	190 nM	4.5 h	3 h	very poor water solubility					
N#Cc1ccc(C(c2ccc(C#N)cc2)n2cncn2)cc1 [Letrozole]						very poor water solubility	4240 nM	4.5 h	6 h	no detectable augmentation of the drug toxicity	increased
CCc1c2c(nc3ccc(OC(=O)N4CCC(N5CCCCC5)CC4)cc13)-c1cc3c(c(=O)n1C2)COC(=O)[C@]3(O)CC [Irinotecan]						good water solubility					
